For the assay, the target named is T1, Interleukin-1 receptor-associated kinase 4 (Homo sapiens, UniProt Q9NWZ3).
T1 sequence (Q9NWZ3 whole entry): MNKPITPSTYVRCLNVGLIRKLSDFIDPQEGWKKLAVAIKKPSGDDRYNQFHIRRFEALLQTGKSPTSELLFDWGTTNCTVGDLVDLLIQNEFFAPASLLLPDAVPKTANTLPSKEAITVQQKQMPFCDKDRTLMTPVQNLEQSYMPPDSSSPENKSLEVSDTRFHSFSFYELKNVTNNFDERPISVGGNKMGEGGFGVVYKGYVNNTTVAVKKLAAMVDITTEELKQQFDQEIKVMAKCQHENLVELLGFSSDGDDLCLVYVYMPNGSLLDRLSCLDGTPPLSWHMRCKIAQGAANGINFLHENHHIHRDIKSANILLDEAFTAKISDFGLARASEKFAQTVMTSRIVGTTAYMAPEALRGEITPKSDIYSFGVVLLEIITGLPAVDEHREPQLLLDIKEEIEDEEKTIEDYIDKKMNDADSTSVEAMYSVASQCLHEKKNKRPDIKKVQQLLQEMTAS
Kind of assay: In Vitro Enzymatic Activity Evaluation: The inhibitory activity of the test compounds against human IRAK4 was evaluated by measuring IC50 values in a 33P-labeled kinase activity assay (Reaction Biology Corp).Buffer conditions: 20 mM Hepes (pH 7.5), 10 mM MgCl2, 1 mM EGTA, 0.02% Brij35, 0.02 mg/mL BSA, 0.1 mM Na3VO4, 2 mM DTT, 1% DMSO.Procedures: The test compound was dissolved in DMSO at room temperature to prepare a 10 mM solution for later use. The substrate was dissolved in fresh buffer, to which the kinase was added and mixed well. The DMSO solution containing the test compound was added to the above mixed reaction system by an acoustic technique (Echo 550). The concentrations of the compounds in reaction system were 10 μM, 3.33 μM, 1.11 μM, 0.370 μM, 0.123 μM, 41.2 nM, 13.7 nM, 4.57 nM, 1.52 nM, and 0.508 nM. After 15 minutes of incubation, the reaction was started by adding 33P-ATP (activity: 0.01 μCi/μL; the corresponding concentration is listed in Table 1). Supplier's catalog number, lot number and concentration information in the reaction system for IRAK4 and its substrate are listed in Table 1. After 120 minutes of reaction at room temperature, the resulting solution was loaded on P81 ion exchange chromatography paper sheet (Whatman #3698-915). […].

`Cc1nsc2nc(Nc3cnn(C4CCOCC4)c3)nc(N[C@H]3CC[C@H](N4C[C@H]5C[C@@H]4CN5C(C)C)CC3)c12`: the IC50 (as a rule, the concentration at which inhibition is half-maximal) came out at 231 nM.

As for `Cc1nsc2nc(Nc3cnn(C4(C)COC4)c3)nc(N[C@H]3CC[C@H](N4CCOCC4)CC3)c12`, 13.5 nM corresponded to half-maximal inhibition (IC50).
